Structures can show the parent of a compound that is named as a salt.
Assays:
Jcl:SD male rats = experiment: Effect on serum cholesterol level in rat; format: in vivo; details: for Blood cholesterol: oral once a day for 4 days; for Blood cholesterol lowering action: summary of Table 6(1) and 6(2)
Method: A test compound was dissolved in 10% aqueous cyclodextrin solution, and orally administrated to 7-week-old Jcl:SD male rats (manufactured by CLEA Japan, Inc.) once a day for 4 consecutive days. The blood was drawn on the next day of the final administration, and plasma cholesterol was measured using a measurement kit (cholesterol CII-testwako, manufactured by Wako Pure Chemical Industries, Ltd.).

ovariectomized rats [1] = experiment: Effect on decreased femur bone density of ovariectomized rat (pQCT); format: in vivo; details: for Bone density: femural metaphysis, oral once a day for 4 weeks; for Effect on decrease in the bone density due to ovariectomy: summary of Table 5(1) and 5(2)
Source text: The ovary on the both sides of 13-week-old Jcl:SD female rats (manufactured by CLEA Japan, Inc.) were removed under ether anesthesia or the rats were subjected to a sham surgery, and a test compound dissolved in 10% aqueous cyclodextrin solution was orally administrated from the next day once a day for 4 consecutive weeks (10 rats/group). The rats were sacrificed by hemorrhage on the next day of the final administration and the left femur was removed. The bone density of the femural metaphysis was measured using pQCT [peripheral Quantitative Computed Tomography, XCT-960A, manufactured by Norland-Stratec].

ovariectomized rats [2] = experiment: Uterus weight of ovariectomized rat (side effects); format: in vivo; details: for Uterus weight: ovariectomized rat
Method: (§1) A test compound was dissolved in 10% aqueous cyclodextrin solution and orally administered to ovariectomized rats once a day for two consecutive weeks. The blood was drawn under ether anesthesia. The blood sample was allowed to coagulate at room temperature for 1 hr and centrifuged at 3000 rpm for 10 min to give serum. The amount of LH in serum was measured using a rat LH radioimmunoassay kit (manufactured by Immunotec Research Ltd., France).
To investigate the side effects of the compound of the present invention, the test compound was orally administered consecutively to ovariectomized rats and sham surgery rats in the same manner as in Experimental Example 1b, the uterus was removed and weighed.

ovariectomized rats [3] = experiment: Luteinizing hormone (LH) level in serum of ovariectomized rats; format: in vivo; details: ovariectomized rat; for Serum LH: oral once a day for two weeks
Method: as §1

ovariectomized rats [4] = experiment: Effects on climacteric syndrome (hot flash-like symptom): tail skin temperature of ovariectomized rats; format: in vivo, rat; details: for Effect on the action of β-estradiol on the tissues involved in the hot flash-like symptom: combined use, summary of Table 3; for Effect on hot flash-like symptom: summary of Table 2
Method: The effect of the compound of the present invention on climacteric syndrome was investigated using ovariectomized rats. The ovariectomized rats were prepared by removing the ovary on the both sides from 8-week-old Jcl:SD female rats (manufactured by CLEA Japan, Inc.) under ether anesthesia. The rats were bred under the conditions of illumination for 12 hours (6:00-18:00) every day, room temperature 24±0.5° C., and were allowed free intake of solid feed (CE-2, manufactured by CLEA Japan, Inc.) and water. The rats after 2 weeks of ovariectomy were subjected to the following experiment. The rats to be used for sham surgery group were treated in the same manner except ovariectomy.
The rats after 2 weeks of ovariectomy and sham surgery were subjected to the measurement of tail skin temperature by reference to the method of Hosono et al. (Am. J. Physiol. Regulatory Integrative Comp. Physiol. 280: R1341-R1347, 2001) without anesthesia. To be specific, a temperature sensor (SXK-67, manufactured by TAKARA THERMISTOR) was fixed at 5 cm from the base of the tail of the rats with an adhesive plaster (manufactured by NICHIBAN), and covered with an aluminum plate. The other end of the temperature sensor was connected to a fluclet (manufactured by DAINIPPON PHARMACEUTICAL CO., LTD.) via an amplifier (E332, manufactured by TAKARA THERMISTOR) and measurement and analysis were performed for 2 hr. The results are shown in Table 1, wherein an incidence of a hot flash-like symptom was confirmed at the tail of the ovariectomized rats.
A test compound was dissolved in a solvent (10% aqueous cyclodextrin solution), and orally administered to ovariectomized rats once a day for two consecutive weeks. The tail skin temperature was measured in the same manner as in the aforementioned method on the day of the final administration.

[5] = Table 7, oral once a day for two weeks, dose 1.0 mg/kg
[6] = Table 2, oral once a day for two weeks, dose 10.0 mg/kg
[7] = Table 2, oral once a day for two weeks, dose 0.1 mg/kg
[8] = Table 2, oral once a day for two weeks, dose 1.0 mg/kg

Compound	Blood cholesterol lowering action (Jcl:SD male rats)	Effect on decrease in the bone density due to ovariectomy (ovariectomized rats [1])	Blood cholesterol (Jcl:SD male rats; Table 6(1), dose 0.3 mg/kg) [mg/dL]	Uterus weight (ovariectomized rats [2]; [5]) [mg]	Bone density (ovariectomized rats [1]; Table 5(1), dose 1.0 mg/kg) [mg/mL]	Average tail skin temperature (ovariectomized rats [4]; [6]) [°C]	Average tail skin temperature (ovariectomized rats [4]; [7]) [°C]	Average tail skin temperature (ovariectomized rats [4]; [8]) [°C]	Effect on the action of β-estradiol on the tissues involved in the hot flash-like symptom (ovariectomized rats [4])	Effect on hot flash-like symptom (ovariectomized rats [4])	further results
CC(C)CN1CCC(c2ccc(C3=CC4(CCc5cc(O)ccc54)c4ccc(O)cc43)cc2)CC1 (stereo not shown) [Example 30, 3-[4-(1-isobutyl-4-piperidinyl)phenyl]spiro[indene-1,1′-indan]-5,5′-diol hydrochloride]	significant blood cholesterol lowering action at a lower dose than β-estradiol										Blood cholesterol (Jcl:SD male rats; Table 6(2), dose 1.0 mg/kg): 23.6 ± 2.2 mg/dL
Cl.Oc1ccc2c(c1)CCC21C=C(c2ccc(OCCN3CCCCC3)cc2)c2cc(O)ccc21 (single isomer, unassigned; (+)) [Example 37, (+)-3-[4-(2-piperidinoethoxy)phenyl]spiro[indene-1,1′-indan]-5,5′-diol hydrochloride]		significantly suppressed the decrease in the bone density									Bone density (ovariectomized rats [1]; Table 5(2), dose 0.01 mg/kg): 551 ± 10 mg/mL; Bone density (ovariectomized rats [1]; Table 5(2), dose 0.1 mg/kg): 620 ± 15 mg/mL; Bone density (ovariectomized rats [1]; Table 5(2), dose 1.0 mg/kg): 658 ± 17 mg/mL
C[C@]12CC[C@@H]3c4ccc(O)cc4CC[C@H]3[C@@H]1CC[C@@H]2O [β-estradiol, reference compound]			62.7 ± 7.5	406.3 ± 20.6	767.3 ± 63.9	27.7 ± 0.2					Blood cholesterol (Jcl:SD male rats; Table 6(1), dose 1.0 mg/kg): 42.8 ± 6.1 mg/dL; Blood cholesterol (Jcl:SD male rats; Table 6(1), dose 3.0 mg/kg): 25.8 ± 2.0 mg/dL; Uterus weight (ovariectomized rats [2]; Table 8, single administration, dose 3.0 mg/kg): 491.7 ± 19.6 mg; Serum LH (ovariectomized rats [3]; dose 3.0 mg/kg): 7.6 ± 0.97 ng/mL; Average tail skin temperature (ovariectomized rats [4]; Table 2, oral once a day for two weeks, dose 3.0 mg/kg): 28.4 ± 0.6 °C; Average tail skin temperature (ovariectomized rats [4]; Table 3, oral once a day for two weeks, single use, dose 3.0 mg/kg): 28.1 ± 0.6 °C
Cl.Oc1ccc2c(c1)CC[C@@]21C[C@@H](c2ccc(OCCN3CCCCC3)cc2)c2cc(O)ccc21 (relative stereo) [Example 36A, (1R*,3S*)-3-[4-(2-piperidinoethoxy)phenyl]-1,1′-spirobiindan-5,5′-diol hydrochloride]						29.0 ± 0.4	29.9 ± 0.4	29.4 ± 0.4	did not inhibit the action of β-estradiol	improved the hot flash-like symptom	
Oc1ccc2c(c1)CCC21C=C(c2ccc(OCCN3CCCCC3)cc2)c2cc(O)ccc21 (stereo not shown) [Example 1, 3-[4-(2-piperidinoethoxy)phenyl]spiro[indene-1,1′-indan]-5,5′-diol hydrochloride]	significant blood cholesterol lowering action at a lower dose than β-estradiol	significantly suppressed the decrease in the bone density	41.6 ± 5.2	178.6 ± 9.3	738.0 ± 47.9	28.0 ± 0.5	29.4 ± 0.3	28.9 ± 0.4	did not inhibit the action of β-estradiol	improved the hot flash-like symptom	Blood cholesterol (Jcl:SD male rats; Table 6(1), dose 0.03 mg/kg): 63.1 ± 4.8 mg/dL; Blood cholesterol (Jcl:SD male rats; Table 6(1), dose 0.1 mg/kg): 53.8 ± 7.3 mg/dL; Effect on uterus weight of ovariectomized rat (ovariectomized rats [2]; summary of Table 7): does not significantly increase the uterus weight; Effect on the uterus weight increasing action of β-estradiol (ovariectomized rats [2]; summary of Table 8): significantly suppressed the uterus weight increasing action of β-estradiol; Serum LH (ovariectomized rats [3]; dose 1.0 mg/kg): 10.1 ± 0.60 ng/mL; Effect on increase in the LH amount due to ovariectomy (ovariectomized rats [3]; summary of Table 4): significantly suppressed increase in the LH amount

Source: patent publication US20050256308A1, “Spiro compounds, medicinal compositions containing the same and intermediates of the compounds” (Dainippon Pharmaceutical Co., Ltd., priority 2002, published 2005)
